In series [1] the test system is ARPE-19 cells. Description: ARPE-19 cholesterol efflux. Type of series: cell-based, human. Conditions: ARPE-19, 20 μM peptide, 4 hours. Here is the method: Fully confluent 96-well plates of ARPE-19 cells were treated for 1 hour in serum-free DMEM containing 10 mM methyl-β-cyclodextrin, 100 μM cholesterol, and 25 μM BODIPY cholesterol. Cells were then washed and incubated overnight in serum-free DMEM containing 1 μM GW3965, 2 μg/mL ACAT inhibitor, and 0.2% BSA (LXR Agonist treated), or serum free DMEM containing 2 μg/mL ACAT inhibitor, and 0.2% BSA (Control). Cells were washed and incubated with 20 μM peptides diluted in serum-free Fluorobrite DMEM for 4 hours at 37° C. Media was transferred to a new 96-well plate and fresh serum-free Fluorobrite DMEM was placed on the cells. Media and cellular fluorescence were read on a Promega GloMax at 475 nm excitation, 500-550 emission. Fluorescence values were background corrected from no treatment conditions and percent efflux was calculated by the following equation: % efflux=(Media Fluorescence values)/(Media+Cell Fluorescence values). Data are presented as mean+SD over two runs per peptide.

A short description of series [2]: key assays (summary statement on homologous variants).
Series [3] concerns ARPE-19 cells. Description: ARPE-19 cell viability assay (Cell Titer Glo). The series is classed as cell-based, human. Conditions: 100 μM peptide, 1.5 hours. On the procedure:
ARPE-19 cells were seeded in 96-well plates at 25,000 cells/well and allowed to adhere to the plate surface for at least 24 hours. Peptides were diluted in serum-free DMEM: F12 to a final concentration of 100 μM. Cells were washed, then incubated in 100 μM peptide solution for 1.5 hours at 37° C. Plates were brought to room temperature for 30 minutes, then washed with DPBS. Cells were incubated in a 1:1 mixture of DPBS and Cell Titer Glo 2.0 Reagent for 10 minutes at room temperature, then cell luminescence was read on a plate reader. Viability values were background corrected, and 0% viability is determined by luminescence values of cells treated with 1% Triton-X-100. Data are presented as mean+SD over two separate runs.

The target in another series is LDLR (Homo sapiens, UniProt P01130). Briefly: LDLR binding (SPR), high surfactant preparation. Here is the method: The table shown in FIG. 23 illustrates LDLR binding data (SPR), using a high surfactant preparation. Recombinant LDLR was diluted in 10 mM acetate buffer pH 4.5 and amine coupled to a CM5 chip at 1000 RU. Peptides were diluted to 5 μM in running buffer (HBS-P+, 1 mM CaCl2) and serially diluted 1:3 for 5 total concentrations. Peptides were exposed to immobilized LDLR at a rate of […] for 120 seconds. Between cycles, the chip surface was regenerated with 3 injections of 50 mM NaOH/100 mM EDTA. Multi-Cycle Kinetics was performed on a Biacore Insight Evaluation Software and binding kinetics were analyzed with a 1:1 binding model.
LDLR, sequence (P01130 22-860): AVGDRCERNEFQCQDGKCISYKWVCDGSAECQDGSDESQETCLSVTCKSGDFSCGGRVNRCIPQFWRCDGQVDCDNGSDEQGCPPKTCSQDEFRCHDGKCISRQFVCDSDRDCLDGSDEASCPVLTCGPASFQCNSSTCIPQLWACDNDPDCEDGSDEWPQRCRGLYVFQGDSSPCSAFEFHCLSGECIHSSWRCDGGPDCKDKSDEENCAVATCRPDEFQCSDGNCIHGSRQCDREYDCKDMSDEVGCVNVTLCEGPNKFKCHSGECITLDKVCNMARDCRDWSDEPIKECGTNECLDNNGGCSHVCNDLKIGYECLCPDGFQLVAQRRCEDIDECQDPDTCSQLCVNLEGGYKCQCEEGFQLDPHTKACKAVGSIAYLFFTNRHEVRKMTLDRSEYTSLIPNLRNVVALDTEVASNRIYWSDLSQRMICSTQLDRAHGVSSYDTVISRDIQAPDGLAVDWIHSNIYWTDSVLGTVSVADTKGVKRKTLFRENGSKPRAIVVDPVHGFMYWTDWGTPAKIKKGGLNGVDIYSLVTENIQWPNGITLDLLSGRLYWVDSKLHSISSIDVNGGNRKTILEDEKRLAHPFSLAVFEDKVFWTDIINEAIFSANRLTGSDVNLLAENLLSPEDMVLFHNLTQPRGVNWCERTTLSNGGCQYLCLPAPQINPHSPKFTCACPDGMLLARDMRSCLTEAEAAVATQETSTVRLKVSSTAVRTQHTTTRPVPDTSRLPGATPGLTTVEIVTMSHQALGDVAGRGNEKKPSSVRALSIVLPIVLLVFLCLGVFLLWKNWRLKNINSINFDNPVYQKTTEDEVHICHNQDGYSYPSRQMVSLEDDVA

The subject of a further series is HMC3 cells. Briefly: HMC3 cholesterol efflux. Type of series: cell-based, human. Conditions: HMC3, 20 μM peptide, 4 hours. On the procedure:
FIGS. 27A-27B and FIG. 28 illustrate HMC3 cholesterol efflux. Fully confluent 96-well plates of HMC3 cells were treated for 1 hour in serum-free EMEM containing 10 mM methyl-β-cyclodextrin, 100 μM cholesterol, and 25 μM BODIPY cholesterol. Cells were then washed and incubated overnight in serum free EMEM containing 1 μM LXR agonist GW3965, 2 μg/mL ACAT inhibitor, and 0.2% BSA (LXR Agonist treated), or serum-free EMEM containing 2 μg/mL ACAT inhibitor, and 0.2% BSA (Control). Cells were washed and incubated with 20 μM peptides diluted in serum-free Fluorobrite DMEM for 4 hours at 37° C. Media was transferred to a new 96-well plate and fresh serum-free Fluorobrite DMEM was placed on the cells. Media and cellular fluorescence were read on a Promega GloMax at 475 nm excitation, 500-550 emission. Fluorescence values were background corrected from no treatment conditions and percent efflux was calculated by the following equation: % efflux=(Media Fluorescence values)/(Media+Cell Fluorescence values). Data are presented as mean+SD over two runs per peptide.
FIGS. 30A-30J show HMC3 cholesterol efflux titration curves for the indicated peptides. Fully confluent 96-well plates of HMC3 cells were treated for 1 hour in serum-free EMEM containing 10 mM methyl-β-cyclodextrin, 100 μM cholesterol, and 25 μM BODIPY cholesterol. Cells were then washed and incubated overnight in serum free EMEM containing 1 μM GW3965, 2 μg/mL ACAT inhibitor, and 0.2% BSA (LXR Agonist treated), or serum free EMEM containing 2 μg/mL ACAT inhibitor, and 0.2% BSA (Control). Cells were washed and incubated with 0-100 μM peptides serially diluted in serum-free Fluorobrite DMEM for 4 hours at 37° C. Media was transferred to a new 96-well plate and fresh serum-free Fluorobrite DMEM was placed on the cells. Media and cellular fluorescence were read on a Promega GloMax at 475 nm excitation, 500-550 emission. Fluorescence values were background corrected from no treatment conditions and percent efflux was calculated by the following equation: % efflux=(Media Fluorescence values)/(Media+Cell Fluorescence values). Data are presented as mean+SD over two runs per peptide.

The mark [4] stands for this setting: high surfactant preparation (HBS-P+), 1:1 binding model, read-out: binding KD to LDLR.

Experimental findings from patent publication US20260115250A1, “METHODS OF TREATING AGE-RELATED MACULAR DEGENERATION” (Character Biosciences, Inc., priority 2022, published 2026) are described below.

pKd: −log10 of the molar value. Read-outs that look alike come from different tables or passages of the source. Ends that are not written are not given here. Peptide text beside a SMILES is read from it.

On to “T-172: variant of peptide T-087 (DAWERFRALFKELADYFA)”, for which the “cholesterol efflux following LXR agonist treatment” value with ARPE-19 cells [1] is “increased cholesterol efflux”. Also, the “activity in key assays of polypeptides homologous to T-087” value in series [2] is given as “sustained or improved activity”.

In the case of “T-163: variant of peptide T-087 (DAWERFRALAKELADYFR)”, the “cholesterol efflux following LXR agonist treatment” value in the series on ARPE-19 cells [1] was “increased cholesterol efflux”. Besides, the “activity in key assays of polypeptides homologous to T-087” value in series [2] is “sustained or improved activity”.

Regarding `CSCC[C@H](NC(=O)[C@H](CC(C)C)NC(=O)[C@H](CC(=O)O)NC(=O)[C@H](CCCCN)NC(=O)CNC(=O)[C@H](Cc1ccc(O)cc1)NC(=O)[C@H](CC(=O)O)NC(=O)[C@@H](NC(=O)[C@@H](NC(=O)[C@@H](NC(=O)[C@H](CCC(N)=O)NC(=O)[C@H](Cc1ccccc1)NC(=O)[C@H](Cc1ccc(O)cc1)NC(=O)[C@H](CCC(N)=O)NC(=O)[C@H](CO)NC(=O)[C@@H](NC(=O)[C@H](CC(C)C)NC(=O)[C@H](CO)NC(=O)[C@H](CCCNC(=N)N)NC(=O)[C@H](CC(C)C)NC(=O)[C@H](CC(C)C)NC(=O)[C@H](CCCNC(=N)N)NC(=O)[C@H](CCCCN)NC(=O)[C@H](CCCNC(=N)N)NC(=O)[C@H](CC(C)C)NC(=O)[C@H](CCCCN)NC(=O)[C@H](CCCNC(=N)N)NC(=O)[C@H](CC(C)C)NC(=O)[C@H](Cc1c[nH]cn1)NC(=O)[C@H](CO)NC(=O)[C@H](C)NC(=O)[C@@H](N)CC(C)C)C(C)C)[C@@H](C)O)C(C)C)[C@@H](C)O)C(=O)O` [T-065] (H-LASHLRKLRKRLLRSLVSQYFQTVTDYGKDLM-OH), the ARPE-19 cell viability result in the series on ARPE-19 cells [3] is “substantial change in viability”. Moreover, on LDLR (setting [4]), the pKd was more than 5.00.

Take `CC(C)C[C@H](NC(=O)[C@H](CC(=O)O)NC(=O)[C@H](CCC(=O)O)NC(=O)CNC(=O)[C@H](Cc1ccc(O)cc1)NC(=O)[C@H](CC(=O)O)NC(=O)[C@@H](NC(=O)[C@@H](NC(=O)[C@@H](NC(=O)[C@H](CCC(N)=O)NC(=O)[C@H](CCCNC(=N)N)NC(=O)[C@H](Cc1ccc(O)cc1)NC(=O)[C@H](CCC(N)=O)NC(=O)[C@H](CO)NC(=O)[C@@H](NC(=O)[C@H](CC(C)C)NC(=O)[C@H](CO)NC(=O)[C@H](CCCNC(=N)N)NC(=O)[C@H](CC(C)C)NC(=O)[C@H](CC(C)C)NC(=O)[C@H](CCCNC(=N)N)NC(=O)[C@H](CCCCN)NC(=O)[C@@H](NC(=O)[C@H](CC(C)C)NC(=O)[C@H](CCCCN)NC(=O)[C@H](CCCNC(=N)N)NC(=O)[C@H](CC(C)C)NC(=O)[C@@H](N)Cc1c[nH]cn1)C(C)C)C(C)C)[C@@H](C)O)C(C)C)[C@@H](C)O)C(=O)O` [T-111] (H-HLRKLVKRLLRSLVSQYRQTVTDYGEDL-OH): in the series with ARPE-19 cells [3], the ARPE-19 cell viability entry is “substantial change in viability”. The pKd on LDLR (setting [4]) was more than 5.00.

As for “T-123: variant of peptide T-101 (RSAADALESALKELKRFIREWT)”, the “cholesterol efflux in the presence of LXR agonist” value (from here on “cholesterol efflux in the presence”) in the series on HMC3 cells is “greater cholesterol efflux”. For the same molecule, the “activity in key assays of polypeptides of the SEQ ID NO. 101 family” value (“activity … of the SEQ ID NO. 101 family” for short) in series [2] was “sustained or improved activity”.

As to “DHINKVQRKVTHEIERLFLGQSTEELRVRLASHLRKLRKRLLRDADDLQKRLAVYQA [T-115]”, the ARPE-19 cell viability entry in the series on ARPE-19 cells [3] is “substantial change in viability”. The molecule also had a pKd on LDLR of more than 5.00.

As to “T-122: variant of peptide T-101 (RAGADALESALKELKRFIREWT)”, in the series with HMC3 cells, the “cholesterol efflux in the presence” value is “greater cholesterol efflux”. The “activity … of the SEQ ID NO. 101 family” value in series [2] is “sustained or improved activity”.

Take `CC(C)C[C@H](NC(=O)[C@H](C)NC(=O)[C@H](CCCNC(=N)N)NC(=O)[C@H](Cc1ccccc1)NC(=O)[C@H](CCC(=O)O)NC(=O)[C@H](CCCNC(=N)N)NC(=O)[C@@H](N)Cc1c[nH]c2ccccc12)C(=O)N[C@@H](Cc1ccccc1)C(=O)N[C@@H](CCCCN)C(=O)N[C@@H](CCC(=O)O)C(=O)N[C@@H](CC(C)C)C(=O)N[C@@H](C)C(=O)N[C@@H](CC(=O)O)C(=O)N[C@@H](Cc1ccc(O)cc1)C(=O)N[C@@H](Cc1ccccc1)C(=O)N[C@@H](CCCNC(=N)N)C(=O)N[C@@H](CC(=O)O)C(=O)N[C@@H](C)C(=O)O` [T-085] (H-WREFRALFKELADYFRDA-OH): the ARPE-19 cell viability entry in the series on ARPE-19 cells [3] was “substantial change in viability”.

As for “T-136: variant of peptide T-101 (RSGADALESALKELKAFIREWT)”, in the series on HMC3 cells, the “cholesterol efflux in the presence” value is “greater cholesterol efflux”. In series [2], the “activity … of the SEQ ID NO. 101 family” value was “sustained or improved activity”.

As for “T-160: variant of peptide T-087 (DAWERFRPLFKELADYFR)”, in the series with ARPE-19 cells [1], the “cholesterol efflux following LXR agonist treatment” value is “increased cholesterol efflux”. Moreover, in series [2], the “activity in key assays of polypeptides homologous to T-087” value is “sustained or improved activity”.

As to “T-152: variant of peptide T-087 (AAWERFRALFKELADYFR)”, the “cholesterol efflux following LXR agonist treatment” value with ARPE-19 cells [1] is on record as “increased cholesterol efflux”. Besides, the “activity in key assays of polypeptides homologous to T-087” value in series [2] is given as “sustained or improved activity”.

As to “T-139: variant of peptide T-101 (RSGADALESALKELKRFIAEWT)”, the “cholesterol efflux in the presence” value in the series with HMC3 cells is listed as “greater cholesterol efflux”. Moreover, the “activity … of the SEQ ID NO. 101 family” value in series [2] is “sustained or improved activity”.

For the molecule “T-129: variant of peptide T-101 (RSGADALEAALKELKRFIREWT)”, the “cholesterol efflux in the presence” value in the series on HMC3 cells is on record as “greater cholesterol efflux”. Further, in series [2], the “activity … of the SEQ ID NO. 101 family” value is on record as “sustained or improved activity”.

“VRGRLVQYRGEVQAMLGQSTEELRVRLASHLRKLRKRLLRDADDLQKRLAVYQA [T-069]”: the ARPE-19 cell viability entry with ARPE-19 cells [3] is “substantial change in viability”. Besides, the negative logarithm of the Kd (pKd) at LDLR is more than 5.00.

Take `CC(C)C[C@H](NC(=O)[C@H](CC(=O)O)NC(=O)[C@H](CCCCN)NC(=O)CNC(=O)[C@H](Cc1ccc(O)cc1)NC(=O)[C@H](CC(=O)O)NC(=O)[C@@H](NC(=O)[C@@H](NC(=O)[C@@H](NC(=O)[C@H](CCC(N)=O)NC(=O)[C@H](CCCNC(=N)N)NC(=O)[C@H](Cc1ccc(O)cc1)NC(=O)[C@H](CCC(N)=O)NC(=O)[C@H](CO)NC(=O)[C@@H](NC(=O)[C@H](CC(C)C)NC(=O)[C@H](CO)NC(=O)[C@H](CCCNC(=N)N)NC(=O)[C@H](CC(C)C)NC(=O)[C@H](CC(C)C)NC(=O)[C@H](CCCNC(=N)N)NC(=O)[C@H](CCCCN)NC(=O)[C@H](CCCNC(=N)N)NC(=O)[C@H](CC(C)C)NC(=O)[C@H](CCCCN)NC(=O)[C@H](CCCNC(=N)N)NC(=O)[C@H](CC(C)C)NC(=O)[C@@H](N)Cc1c[nH]cn1)C(C)C)[C@@H](C)O)C(C)C)[C@@H](C)O)C(=O)O` [T-110] (H-HLRKLRKRLLRSLVSQYRQTVTDYGKDL-OH): the ARPE-19 cell viability entry in the series with ARPE-19 cells [3] is on record as “substantial change in viability”. For the same molecule, on LDLR (setting [4]), the pKd is more than 5.00.

On to “T-161: variant of peptide T-087 (DAWERFRGLFKELADYFR)”, for which the “cholesterol efflux following LXR agonist treatment” value with ARPE-19 cells [1] was “increased cholesterol efflux”. The “activity in key assays of polypeptides homologous to T-087” value in series [2] is recorded as “sustained or improved activity”.

The pKd is −log10 of the Kd, conventionally taken in molar units.
